Results published in patent US10100282B2, “Differentiation of pluripotent cells” (FUJIFILM Cellular Dynamics, Inc., priority 2009, dated 2018).

Assays:
ROCK = details: cited from earlier work
hESCs and iPSCs = experiment: EB formation from single cell suspensions using ROCK inhibitors/PVA; type: cell-based, human; details: 18-24 hrs
Experimental: hESCs and iPSCs adapted to feeder free growth on matrigel maintained using mTESR were preconditioned for three days in the presence of mTesR-GF containing 0.1 ng/ml TGF-β and 20 ng/ml FGF-2. To initiate differentiation from single cells the, the cultures were treated with TrypLE™ (Invitrogen) for 6 minutes and the cells suspension was collected in (1) plain EB basal media, (2) EB basal media containing PVA, (3) EB basal media containing 0.5% PVA and 1 μM H1152 or 10 μM Y27632 ROCK inhibitor, or (4) EB basal media containing only 1 uM H1152 ROCK inhibitor. The cells were collected and washed once and plated in the respective media formulations on a low attachment plate at 37 C. The EB formation status was checked at 18-24 hrs later under a phase contrast microscope.

hESCs = experiment: Cytokine matrix: serum-free EB hematopoietic differentiation, surface markers by flow cytometry; type: cell-based, human; details: for role during EB differentiation: serum free hematopoietic differentiation, days 8, 12, 17
Experimental: Cells were collected from each well/condition and washed once with media. The cell pellet was digested using TrypLE™ or 0.5% trypsin for 5-10 minutes in a 37° C. incubator followed by washes with media and passage through a 70-μm cell strainer. […] Non-viable cells were excluded with 7-aminoactinomycin D (7-AAD, BD Biosciences). Live cell analysis was performed on a FACSCalibur™ or Accuri flow cytometer and Cell Quest software. hESCs adapted to feeder free growth on matrigel maintained using mTESR were preconditioned for three days in the presence of X-vivo-15 containing 0.1 ng/ml TGF-β and 20 ng/ml FGF-2. Cells were harvested using TrypLE for 6 minutes at 37 C. TrypLE™ was neutralized using EB basal media containing 1 μM ROCK inhibitor (H-1152), Soybean trypsin inhibitor (0.25 mg/ml). The cells were washed once in EB basal media containing 1 μM ROCK inhibitor and soybean trypsin inhibitor (0.25 mg/ml). The cells were plated in low attachment plates in EB basal media containing 1 μM ROCK inhibitor and soybean trypsin inhibitor (0.25 mg/ml). The media was changed the next day to EB basal media containing different cytokine formulations. […] The cytokine combinations used are listed below in Table 3. The EB cultures were half fed with fresh differentiation media every two days. The EB cultures were harvested on day 8, 12 and 17 of differentiation. The EB cultures were harvested by spinning down all the cells and digesting the EBs with TrypLE™ or 0.5% trypsin. The phenotype of the progenitor cell types was analyzed by flow cytometry and the cells were plated in methylcellulose media for CFU assays. “FLT3” refers to the Flt3 ligand below.

pluripotent cells = experiment: Hematopoietic differentiation in defined cell culture media with single growth factors; type: cell-based; details: factor alone in a cell culture media
[1] = ROCK inhibitor present (1 μM H1152 or 10 μM Y27632), 0.5% PVA present
[2] = ROCK inhibitor present, PVA absent

Row | Molecule | CD31 expressing cells (hESCs; DAY 8, factor ABSENT) | CD34 expressing cells (hESCs; DAY 8, factor ABSENT) | CD43 expressing cells (hESCs; DAY 8, factor ABSENT) | CD45 expressing cells (hESCs; DAY 8, factor ABSENT) | FLK-1 expressing cells (hESCs; DAY 8, factor ABSENT) | CD31 expressing cells (hESCs; DAY 8, factor PRESENT) | CD34 expressing cells (hESCs; DAY 8, factor PRESENT) | CD43 expressing cells (hESCs; DAY 8, factor PRESENT) | CD45 expressing cells (hESCs; DAY 8, factor PRESENT) | FLK-1 expressing cells (hESCs; DAY 8, factor PRESENT) | CD31 expressing cells (hESCs; DAY 12, factor ABSENT) | CD34 expressing cells (hESCs; DAY 12, factor ABSENT) | CD43 expressing cells (hESCs; DAY 12, factor ABSENT) | CD45 expressing cells (hESCs; DAY 12, factor ABSENT) | FLK-1 expressing cells (hESCs; DAY 12, factor ABSENT) | CD31 expressing cells (hESCs; DAY 12, factor PRESENT) | CD34 expressing cells (hESCs; DAY 12, factor PRESENT) | CD43 expressing cells (hESCs; DAY 12, factor PRESENT) | CD45 expressing cells (hESCs; DAY 12, factor PRESENT) | FLK-1 expressing cells (hESCs; DAY 12, factor PRESENT) | further results
1 | Cc1cncc2cccc(S(=O)(=O)N3CCCNCC3C)c12 (stereo in doubt) [H-1152, (S)-(+)-2-Methyl-1-[(4-methyl-5-isoquinolinyl)sulfonyl]homopiperazine] |  |  |  |  |  |  |  |  |  |  |  |  |  |  |  |  |  |  |  |  | potency relative to HA-100 (ROCK): approximately ten-fold; EB status (hESCs and iPSCs; [1]): Formed; EB status (hESCs and iPSCs; [2]): Formed
2 | C[C@@H](N)[C@H]1CC[C@H](C(=O)Nc2ccncc2)CC1 [Y-27632, (R)-(+)-trans-4-(1-Aminoethyl)-N-(4-Pyridyl)cyclohexanecarboxamide] |  |  |  |  |  |  |  |  |  |  |  |  |  |  |  |  |  |  |  |  | EB status (hESCs and iPSCs; [1]): Formed; EB status (hESCs and iPSCs; [2]): Formed
3 | BMP4: Bone morphogenetic protein-4 | 0.2% | 0.5% | 0.1% | 0.2% | 1.4% | 1.3% | 1.7% | 1.6% | 0.2% | 2.4% | 0.6% | 1.3% | 0.3% | 0.1% | 0.2% | 3.2% | 2.9% | 4.0% | 3.7% | 0.7% | CD31 expressing cells (hESCs; DAY 17, factor ABSENT): 1.0%; CD34 expressing cells (hESCs; DAY 17, factor ABSENT): 2.0%; CD43 expressing cells (hESCs; DAY 17, factor ABSENT): 0.7%; CD45 expressing cells (hESCs; DAY 17, factor ABSENT): 0.3%; FLK-1 expressing cells (hESCs; DAY 17, factor ABSENT): 0.8%; CD31 expressing cells (hESCs; DAY 17, factor PRESENT): 11.9%; CD34 expressing cells (hESCs; DAY 17, factor PRESENT): 2.9%; CD43 expressing cells (hESCs; DAY 17, factor PRESENT): 12.8%; CD45 expressing cells (hESCs; DAY 17, factor PRESENT): 12.8%; FLK-1 expressing cells (hESCs; DAY 17, factor PRESENT): 2.7%; role during EB differentiation (hESCs): significant role at all time points; promotion of hematopoietic differentiation (pluripotent cells): did not promote hematopoietic differentiation
4 | VEGF | 0.4% | 0.7% | 0.1% | 0.1% | 2.0% | 1.1% | 1.5% | 1.6% | 0.2% | 1.8% | 0.6% | 1.3% | 0.2% | 0.2% | 0.3% | 3.2% | 2.9% | 4.0% | 3.6% | 0.6% | CD31 expressing cells (hESCs; DAY 17, factor ABSENT): 1.0%; CD34 expressing cells (hESCs; DAY 17, factor ABSENT): 2.0%; CD43 expressing cells (hESCs; DAY 17, factor ABSENT): 0.9%; CD45 expressing cells (hESCs; DAY 17, factor ABSENT): 0.4%; FLK-1 expressing cells (hESCs; DAY 17, factor ABSENT): 1.4%; CD31 expressing cells (hESCs; DAY 17, factor PRESENT): 11.8%; CD34 expressing cells (hESCs; DAY 17, factor PRESENT): 2.8%; CD43 expressing cells (hESCs; DAY 17, factor PRESENT): 12.6%; CD45 expressing cells (hESCs; DAY 17, factor PRESENT): 12.7%; FLK-1 expressing cells (hESCs; DAY 17, factor PRESENT): 2.3%; role during EB differentiation (hESCs): significant role at all time points; promotion of hematopoietic differentiation (pluripotent cells): did not promote hematopoietic differentiation
5 | FLT-3: Flt3 ligand, the endogenous ligand for FLT3 (protein, UniProt P49771 27-235, looked up) Fms-related tyrosine kinase 3 …: TQDCSFQHSPISSDFAVKIRELSDYLLQDYPVTVASNLQDEELCGGLWRLVLAQRWMERLKTVAGSKMQGLLERVNTEIHFVTKCAFQPPPSCLRFVQTNISRLLQETSEQLVALKPWITRQNFSRCLELQCQPDSSTLPPPWSPRPLEATAPTAPQPPLLLLLLLPVGLLLLAAAWCLHWQRTRRRTPRPGEQVPPVPSPQDLLLVEH | 0.5% | 0.9% | 0.3% | 0.2% | 1.6% | 1.0% | 1.4% | 1.4% | 0.2% | 2.2% | 1.5% | 1.7% | 1.4% | 1.2% | 0.5% | 2.4% | 2.6% | 3.0% | 2.7% | 0.5% | CD31 expressing cells (hESCs; DAY 17, factor ABSENT): 1.4%; CD34 expressing cells (hESCs; DAY 17, factor ABSENT): 2.2%; CD43 expressing cells (hESCs; DAY 17, factor ABSENT): 1.1%; CD45 expressing cells (hESCs; DAY 17, factor ABSENT): 0.9%; FLK-1 expressing cells (hESCs; DAY 17, factor ABSENT): 1.3%; CD31 expressing cells (hESCs; DAY 17, factor PRESENT): 11.5%; CD34 expressing cells (hESCs; DAY 17, factor PRESENT): 2.6%; CD43 expressing cells (hESCs; DAY 17, factor PRESENT): 12.4%; CD45 expressing cells (hESCs; DAY 17, factor PRESENT): 12.3%; FLK-1 expressing cells (hESCs; DAY 17, factor PRESENT): 2.4%
